# According to paper PMC4971421, “Redox-Dependent Modulation of T-Type Ca^2+ Channels in Sensory Neurons Contributes to Acute Anti-Nociceptive Effect of Substance P” (Antioxidants & Redox Signaling, 2016):
# How the values were obtained:
# [1] = system: high-voltage-activated (HVA) Ca^2+ currents in DRG neurons; experiment: HVA Ca2+ current, whole-cell patch clamp, DRG neurons; format: cell-based, rat; conditions: 1 μM
# Procedure: DRG neurons from adult male Sprague–Dawley rats (170–180 g) were dissociated as previously described ([13], [29]) and cultured in DMEM supplemented with GlutaMax I, 10% fetal calf serum, penicillin (50 U/ml), and streptomycin (50 μg/ml) on glass coverslips that were coated with poly-D-lysine for 2–5 days in a humidified incubator (37°C, 5% CO2). No growth factors were added to the culture media. HEK 293 cells were cultured in the same DMEM media; cells were passaged every 2 days. Human NK1 receptor (GenBank accession No. AY462098) complementary DNA (cDNA) was from the Missouri Science and Technology cDNA Resource Center. WtCaV3.1 (GenBank accession No. AF027984), wtCaV3.2 (GenBank accession No. AF051946), CaV3.1Q172H, and CaV3.2H191Q were kindly provided by Dr E. Perez-Reyes (University of Virginia). HEK293 cells were transfected using Lipofectamine 2000 (Invitrogen) according to the manufacturer's instructions. […]
# All recordings were made using Multiclamp 700B amplifier in combination with pCLAMP 10.4 software (Molecular Devices). […] T-type calcium currents (LVA) were measured by 50 ms square voltage pulses to −40 mV from a holding potential of −90 mV. HVA currents were measured by 200 ms square voltage pulses to 0 mV from a holding potential of −90 mV.
# [2] = system: small-diameter DRG neurons; experiment: DRG neuron excitability, perforated patch current clamp; format: cell-based, rat
# Procedure: To knock down CaV3.2, DRGs were dissociated as described ([13]); immediately after dissociation, DRG pellets were resuspended in 900 μl DMEM (without GlutaMax I, serum or antibiotics), to which a mixture of 9 μl Lipofectamine RNAiMAX (Invitrogen) and either a mix of three anti-Cacna1h Stealth siRNAs (RSS350285, RSS350286, RSS350287; Life Technologies; 200 nM each) or a scrambled control oligo (Stealth RNAi™ siRNA Negative Control; Life Technologies; 200 nM) were added immediately before resuspension. Cultures were than plated in 50 μl droplets onto glass coverslips that were coated with poly-D-lysine and incubated for 5–6 h; the transfection media were then replaced with full DRG culture medium. Patch-clamp recordings were conducted 24–48 h after the transfection. The following primers were used for reverse transcription polymerase chain reaction (RT-PCR) analysis: • Cacna1h sense: 5′-[…]-3′ • Cacna1h AS: 5′-[…]-3′ • Gapdh sense: 5′-[…]-3′ • Gapdh AS: 5′-[…]-3′
# Neuronal excitability was studied using the amphotericin B-perforated patch-clamp current technique ([13]). The extracellular solution contained the following (in mM): 160 NaCl, 2.5 KCl, 5 CaCl2, 1 MgCl2, 10 HEPES, and 8 Glucose. The intracellular solution contained the following (in mM): 145 KCl, 15 NaCl, 5 MgCl2, 10 HEPES, and 250 μg/ml Amphotericin B. The access resistance was typically within […]. APs were generated by an injection of 200 pA current for 1 s from a holding current of 0 pA. Rheobase was determined from a train of current steps from 0 to 400 pA delivered in 20-pA increments. Current clamp recordings were sampled at 12.5 kHz. Bridge balance adjustments were not applied, since only relative changes in Erest, AP number, and rheobase were investigated.
# rat hind paw [3] = experiment: Hargreaves test, paw withdrawal latency to noxious heat; format: in vivo; conditions: hind-paw injection 50 μl; 0.005–0.5 nmol/site; 8 min after injection
# Procedure: For measurement of thermal hyperalgesia, the change in the latency of hind-paw withdrawal in response to noxious heat was recorded using the Hargreaves’ plantar method (Ugo Basile) at 8 min after the hind-paw injection of drugs; the heat source was set to 25% of the maximal intensity.
# rat hind paw [4] = experiment: von Frey test; format: in vivo; conditions: 50 μl; 0.5 nmol/site; filaments 2–15 g; 8 min after injection
# Procedure: For measurement of sensitivity to gentle touch and mechanical hyperalgesia, two methods were used. (i) Cotton swab test was performed as previously described ([53]). Briefly, rats were allowed to acclimate in a cage with a wire mesh bottom for at least 30 min and then were manually probed with a “cotton swab” pulled from a Q-tip (to approximately three times the original size). A swab was applied in a sweeping motion underneath the rats’ paws, and the withdrawal responses were recorded. Five sweeps were applied in each test, with at least 10 s between each sweep; withdrawal score was calculated as a percentage of positive responses. (ii) The von Frey test was performed using a calibrated range of filaments with different bending forces (2, 4, 6, 8, 10, and 15 g; Stoelting Co.). A single filament was applied perpendicularly to the plantar surface of the hind paw for five times, with an interval of 5 s, and it was scored for withdrawal responses. Each force was probed five times, the number of withdrawals out of five trials was counted, and the percentage of withdrawal responses was calculated. Both types of assays were performed 8 min after the hind-paw drug injection.
# CaV3 = conditions: read-out: IC50, CaV3 inhibition; cited from earlier work
# Procedure: (§1) The T-type Ca^2+ current is an important regulator of sensory neuron excitability ([10], [17], [18], [20], [23], [24], [51], [71], [75]). […] Z944 (1 μM) inhibited LVA curren ...
# L-type VGCCs = conditions: 1 μM; cited from earlier work
# Procedure: as §1
# N-type VGCCs = conditions: 1 μM; cited from earlier work
smiles,measurement,setting,value
"CC(C)(C)NC(=O)CN1CCC(CNC(=O)c2cc(F)cc(Cl)c2)CC1 [Z944, N-[[1-[2-(tert-butylamino)-2-oxoethyl]piperidin-4-yl]methyl]-3-chloro-5-fluorobenzamide]",effect on HVA current,[1],without a noticeable effect
same,AP amplitude or duration,[2],without significantly affecting
same,resting membrane potential (Erest),[2],hyperpolarized
same,action potential (AP) firing,[2]; 200 pA for 1 s,decreased
same,effects of BK on the rheobase and the AP number when co-applied with BK,[2]; BK 250 nM,completely reversed
same,rheobase,[2]; current steps 0–400 pA in 20-pA increments,significantly increased
same,small DRG neuron excitability,[2]; perforated current clamp,decreased
same,"effect on Erest, AP number, or rheobase in Cacna1h knocked-down neurons",[2]; siRNA against Cacna1h,neither Z994 nor ST101 produced any significant effect
same,paw withdrawal latency on radiant heat exposure,rat hind paw [3],significantly increased
same,response to von Frey filament stimulation,rat hind paw [4],significantly impaired their ability to respond to stimulation
same,IC50,CaV3,~50 nM
same,effect on L-type VGCCs,L-type VGCCs,no significant effect
same,effect on N-type VGCCs,N-type VGCCs,no significant effect
